Results from article PMC2965131, “Histopathology and biochemistry analysis of the interaction between sunitinib and paracetamol in mice” (BMC Pharmacology, 2010).
Several values for one entry are separate records, joined by “and”; a condition that tells them apart may be missing. Identical values can stand only once.

How the values were obtained:
Male ICR mice [1] = test: Serum ALT and AST (liver function biomarkers); type: in vivo; conditions: for ALT serum concentration / AST serum concentration: mean ± SE
Protocol: (§1) Animals were fasted overnight prior to dose administration and randomly assigned to each of the four experimental groups. Mice in group A (n = 6) were administered saline; mice in group B mice (n = 6) were administered paracetamol only, 500 mg/kg IP. Group C was further subdivided into five different dose-groups of sunitinib only treatment: 25, 50, 80, 100 and 140 mg/kg administered PO (n = 6 for each dose group). Finally, mice in group D were co-administered paracetamol (500 mg/kg IP) and sunitinib at different doses: 25, 50, 80, 100 and 140 mg/kg PO (n = 6 each dose group). A feeding needle was used to ensure the full administration of the dose. Paracetamol was administered 15 minutes before sunitinib and animals were sacrificed 4 hours post sunitinib administration by cervical dislocation. Blood was obtained via cardiac puncture, allowed to clot, centrifuged (1500 rpm, 10 min, room temperature) and stored at -20°C until analysis. The liver and kidneys were excised from the mice and processed for histology assessment.
(§2) Biochemistry analysis of serum ALT and AST was performed using standard assay kits (BiooScientific Corp., USA). The concentration in duplicate samples was measured at 340 nm using a microplate reader (Tecan Infinite F200). Similarly, blood urea nitrogen (BUN) and creatinine concentration were measured using specific assay kits (BioAssay Systems, USA) and measured at 490 nm (duplicate samples) in a Dynex OpsysMR microplate reader.
(§3) The effect of the drug combination on the biomarker levels compared to sunitinib alone treatment was assessed with the aid of SPSS 16.0 with the significance level set at p < 0.05. Independent-samples t-test (for samples normally distributed based on Shapiro-Wilk test) for pair-wise comparison was performed at each dose of the sunitinib alone and sunitinib and paracetamol combination groups. Samples that were not normally distributed were tested using the Mann Whitney test.

Male ICR mice [2] = test: Serum BUN and creatinine (renal function biomarkers); type: in vivo; conditions: for BUN serum concentration / Creatinine serum concentration: mean ± SE, n = 6
Protocol: as §1, §2, §3

liver tissue = test: Histopathology assessment of liver (H&E, semi-quantitative grading); type: in vivo; conditions: mice
Protocol: as §1
(§4) Processing of tissue samples for histology assessment followed established procedures. In brief, the tissue samples were rinsed with 0.9% saline solution, fixed in 10% formalin. Then the diagonal section of the liver, the transverse section of the kidneys and heart and the horizontal section of the spleen and the posterior section of the brain were obtained and processed (Leica TP1020, Japan) as follows: (1) 10% neutral buffered formalin for 1 h, twice; (2) 70% alcohol for 1.5 h; (3) 80% alcohol for 1.5 h; (4) 90% alcohol for 1.5 h; (5) absolute alcohol for 1.5 h, twice; (6) xylene for 1.5 h, twice; (7) in molten wax at 65°C for 2.5 h two changes. The processed tissues were embedded in paraffin and sectioned at 4 microns thickness, placed on frosted glass slides and dried on a 70°C hot plate for 30 minutes.
(§5) The tissues were stained using the hematoxylin and eosin (H&E) stains. The sections were dewaxed in two changes of xylene (3 min each), hydrated in two changes of 100% ethanol, followed by 90% ethanol and 70% ethanol, for 3 min each, rinsed with water (3 min) and stained. […]
(§6) Histopathology changes were observed and grouped based on two main criteria: vascular changes including vessel congestion, extravasation of red blood cells and hematoma formation; and necrotic changes including necrosis, fibrosis, nuclear changes, abscesses and cell regeneration. The morphological changes were assessed semi-quantitatively, blind by two independent assessors and graded as follows: No change - 0 (no distinguishable change, 0%); mild change - 1 (initiation of changes, up to 30%); moderate change - 2 (patent changes, 31-60%); severe change - 3 (wide spread changes, 61-100%). […]

kidney tissue = test: Histopathology assessment of kidney (H&E, semi-quantitative grading); type: in vivo; conditions: mice
Protocol: as §1, §4
(§7) The tissues were stained using the hematoxylin and eosin (H&E) stains. The sections were dewaxed in two changes of xylene (3 min each), hydrated in two changes of 100% ethanol, followed by 90% ethanol and 70% ethanol, for 3 min each, rinsed with water (3 min) and stained. The stained tissues were dehydrated with 70% ethanol followed by 90% ethanol, placed in two changes of 100% ethanol for 3 minutes each and cleaned with two changes of xylene (3 min each).
(§8) Histopathology changes were observed and grouped based on two main criteria: vascular changes including vessel congestion, extravasation of red blood cells and hematoma formation; and necrotic changes including necrosis, fibrosis, nuclear changes, abscesses and cell regeneration. The morphological changes were assessed semi-quantitatively, blind by two independent assessors and graded as follows: No change - 0 (no distinguishable change, 0%); mild change - 1 (initiation of changes, up to 30%); moderate change - 2 (patent changes, 31-60%); severe change - 3 (wide spread changes, 61-100%). Then, using SPSS 16.0, the Mann-Whitney test was used for pair-wise comparison between the sunitinib alone group and the combination group at each dose. The differences were considered significance if p < 0.05.

heart tissue = test: Histopathology assessment of heart (H&E, semi-quantitative grading); type: in vivo; conditions: mice
Protocol: as §1, §4, §7, §8

brain tissue = test: Histopathology assessment of brain (H&E, semi-quantitative grading); type: in vivo; conditions: mice; for Brain histopathological changes: 4 h
Protocol: as §1
Processing of tissue samples for histology assessment followed established procedures. In brief, the tissue samples were rinsed with 0.9% saline solution, fixed in 10% formalin. […]
as §6

spleen = test: Histopathology assessment of spleen (H&E, semi-quantitative grading); type: in vivo; conditions: mice; for Spleen inflammatory changes: at any dose; for Spleen vascular changes: study doses of each treatment group
Protocol: as §1, §4, §5, §6

P450 = test system: P450; parameters: method as in PMID 20020268; conditions: cited from earlier work
[3] = humans; cited from earlier work
plasma proteins = conditions: humans; cited from earlier work
mouse plasma proteins = test system: mouse plasma proteins; parameters: method as in PMID 19169880; conditions: fraction unbound independent of concentration; cited from earlier work
[4] = parameters: method as in earlier work; conditions: monkeys; up; cited from earlier work
[5] = parameters: method as in PMID 16520665; conditions: mice; cited from earlier work
[6] = parameters: method as in PMID 19169880; conditions: mice, cited from earlier work
[7] = paracetamol 500 mg/kg IP alone, n = 6
[8] = paracetamol 500 mg/kg IP alone, n = 6, listed as paracetamol
[9] = sunitinib 25 mg/kg PO alone, 4 h post dose, n = 6
[10] = sunitinib 50 mg/kg PO alone, 4 h post dose, n = 6
[11] = sunitinib 80 mg/kg PO alone, 4 h post dose, n = 6
[12] = sunitinib 100 mg/kg PO alone, 4 h post dose, n = 6
[13] = sunitinib 140 mg/kg PO alone, 4 h post dose, n = 6
[14] = sunitinib alone 25-140 mg/kg PO, 4 h post dose
[15] = sunitinib 25 mg/kg PO alone, 4 h post dose
[16] = sunitinib 50 mg/kg PO alone, 4 h post dose
[17] = sunitinib 80 mg/kg PO alone, 4 h post dose
[18] = sunitinib 100 mg/kg PO alone, 4 h post dose
[19] = sunitinib 140 mg/kg PO alone, 4 h post dose
[20] = increasing doses of sunitinib alone (25-140 mg/kg PO), 4 h

CC(=O)Nc1ccc(O)cc1 [PCM, paracetamol]
Mean serum AST relative to vehicle control group (Male ICR mice [1]; paracetamol 500 mg/kg IP alone): 2 fold | ALT serum concentration (Male ICR mice [1]; [7]): 249.6 ± 222.7 U/L | AST serum concentration (Male ICR mice [1]; [7]): 377.1 ± 173.6 U/L | ALT serum concentration (Male ICR mice [1]; [8]): 249.60 ± 222.72 U/L | AST serum concentration (Male ICR mice [1]; [8]): 377.09 ± 173.55 U/L | Increase of creatinine serum concentration vs baseline control (Male ICR mice [2]; paracetamol 500 mg/kg IP alone): 21% | BUN serum concentration (Male ICR mice [2]; paracetamol 500 mg/kg IP alone): 33.81 ± 5.68 mg/dL | Creatinine serum concentration (Male ICR mice [2]; paracetamol 500 mg/kg IP alone): 0.644 ± 0.110 mg/dL | Hepatic inflammatory changes (grade) (liver tissue; paracetamol 500 mg/kg IP alone): moderate (moderate change - 2 (patent changes, 31-60%)) | Hepatic vascular changes (grade) (liver tissue; paracetamol 500 mg/kg IP alone): mild (mild change - 1 (initiation of changes, up to 30%)) | Renal inflammatory changes (grade) (kidney tissue; paracetamol 500 mg/kg IP alone): mild (mild change - 1 (initiation of changes, up to 30%)) | Renal vascular changes (grade) (kidney tissue; paracetamol 500 mg/kg IP alone): mild (mild change - 1 (initiation of changes, up to 30%)) | Heart inflammatory changes (grade) (heart tissue; paracetamol 500 mg/kg IP alone): mild (mild change - 1 (initiation of changes, up to 30%)) | Heart vascular congestion (grade) (heart tissue; paracetamol 500 mg/kg IP alone): mild (mild change - 1 (initiation of changes, up to 30%)) | Brain vascular or inflammatory changes (brain tissue; paracetamol 500 mg/kg IP alone): no vascular or inflammatory changes | Spleen inflammatory changes (spleen): no inflammatory changes | Spleen vascular changes (spleen): did not reveal any vascular changes | Amount undergoing P450 mediated oxidation to NAPQI (P450): ~ 5%

CCNCCNC(=O)c1c(C)[nH]c(/C=C2\C(=O)Nc3ccc(F)cc32)c1C [SU12662]
Half-life [3]: 80 to 110 h | Bound to plasma proteins (plasma proteins): 90% | Bound to mouse plasma proteins (mouse plasma proteins): 95% | Brain penetration, percent of plasma concentrations [4]: 30%-40 | Brain penetration, times the plasma concentration [5]: 4-7 times

CCN(CC)CCNC(=O)c1c(C)[nH]c(/C=C2\C(=O)Nc3ccc(F)cc32)c1C [Sunitinib]
ALT serum concentration (Male ICR mice [1]; [9]): 61.40 ± 26.57 U/L | AST serum concentration (Male ICR mice [1]; [9]): 204.6 ± 50.3 U/L | ALT serum concentration (Male ICR mice [1]; [10]): 36.75 ± 12.15 U/L | AST serum concentration (Male ICR mice [1]; [10]): 204.4 ± 49.4 U/L | ALT serum concentration (Male ICR mice [1]; [11]): 75.02 ± 20.37 U/L | AST serum concentration (Male ICR mice [1]; [11]): 290.3 ± 77.7 U/L | ALT serum concentration (Male ICR mice [1]; [12]): 47.61 ± 24.50 U/L | AST serum concentration (Male ICR mice [1]; [12]): 243.0 ± 66.4 U/L | ALT serum concentration (Male ICR mice [1]; [13]): 50.89 ± 18.90 U/L | AST serum concentration (Male ICR mice [1]; [13]): 239.5 ± 65.9 U/L | ALT serum concentration, range of group means (Male ICR mice [1]; [14]): 36.75-75.02 U/L | AST serum concentration, range of group means (Male ICR mice [1]; [14]): 204.4-290.3 U/L and 204.64 - 290.28 U/L | BUN serum concentration (Male ICR mice [2]; [15]): 20.08 ± 2.54 mg/dL | Creatinine serum concentration (Male ICR mice [2]; [15]): 0.535 ± 0.033 mg/dL | BUN serum concentration (Male ICR mice [2]; [16]): 17.5 ± 1.25 mg/dL | Creatinine serum concentration (Male ICR mice [2]; [16]): 0.594 ± 0.082 mg/dL | BUN serum concentration (Male ICR mice [2]; [17]): 19.71 ± 0.58 mg/dL | Creatinine serum concentration (Male ICR mice [2]; [17]): 0.528 ± 0.064 mg/dL | BUN serum concentration (Male ICR mice [2]; [18]): 17.62 ± 0.94 mg/dL | Creatinine serum concentration (Male ICR mice [2]; [18]): 0.533 ± 0.060 mg/dL | BUN serum concentration (Male ICR mice [2]; [19]): 26.68 ± 6.05 mg/dL | Creatinine serum concentration (Male ICR mice [2]; [19]): 0.559 ± 0.051 mg/dL | BUN concentrations, range of group means (Male ICR mice [2]; [14]): 17.50 to 26.68 mg/dL | Creatinine serum concentration, range of group means (Male ICR mice [2]; [14]): 0.528 to 0.594 mg/dL | Hepatic inflammatory changes (grade) (liver tissue; [20]): mild (mild change - 1 (initiation of changes, up to 30%)) | Hepatic vascular changes (grade) (liver tissue; [20]): mild (mild change - 1 (initiation of changes, up to 30%)) | Renal inflammatory changes (kidney tissue; sunitinib alone 140 mg/kg PO, 4 h): some tubular necrosis | Renal vascular changes (grade) (kidney tissue; sunitinib alone 25-140 mg/kg PO, 4 h): mild (mild change - 1 (initiation of changes, up to 30%)) | Renal inflammatory changes (kidney tissue; sunitinib alone PO, doses below 140 mg/kg, 4 h): no signs of inflammatory changes | Cardiotoxicity (damage grade) (heart tissue; 25 - 80 mg/kg doses of sunitinib, reduction in relation to the paracetamol group): no damage to moderate damage | Heart inflammatory changes (heart tissue; sunitinib alone PO, 4 h): no inflammatory changes | Heart vascular congestion (grade) (heart tissue; sunitinib alone PO, 4 h): mild (mild change - 1 (initiation of changes, up to 30%)) | Brain histopathological changes (brain tissue; sunitinib alone PO at high doses): toxicity decreased | Brain histopathological changes (brain tissue; sunitinib alone PO at low doses (p < 0.05 at 25 and 80 mg/kg)): Some congestion of vessels at the 'cortical junction' as well as evidence of liquefactive necrosis | Spleen inflammatory changes (spleen): no inflammatory changes | Spleen vascular changes (spleen): did not reveal any vascular changes | Dose eliminated in the faeces [3]: 61% | Half-life [3]: 40 to 60 h | Recovered unchanged in urine [3]: around 16% | Time after dosing at which maximum plasma concentration is reached [3]: 6 to 12 h | Bound to albumin (plasma proteins): 95% | Elimination half-life ([6]; after oral administration): 1.5 to 7.6 h | Time within which maximum concentration is achieved [6]: 0.5 to 6 h | Bound to mouse plasma proteins (mouse plasma proteins): 91% | Brain penetration, percent of plasma concentrations [4]: 30%-40 | Brain penetration, times the plasma concentration [5]: 4-7 times
